From patent US11933780B2, “System and method for assessing an effect on cellular units in an organism” (Functional Fluidics Inc., priority 2022, dated 2024)

Test system: erythrocytes
Assay: percentage of sickling of erythrocytes over time during deoxygenation by the PCA/PCD system
Assay type: cell-based
From the text: FIG. 5 is a graph illustrating a percentage of sickled erythrocytes over time for one sample that is exposed to a drug and one that is not.
Referring again to FIG. 3, the method may continue with the step 60 of deoxygenating the supporting medium in the aliquot of sample A and, in certain embodiments, the supporting medium in the aliquot of sample B to induce at least one of a predetermined amount of hypoxia and a predetermined rate of oxygen consumption in each of the supporting mediums. Deoxygenation of the supporting mediums in the aliquots of samples A and B may occur at the same or different times. Deoxygenation may be performed through enzymatic catalysis using enzymatic oxygen scavengers/scrubbers such as glucose oxidase or pyranose oxidase. In a preferred embodiment, deoxygenation is performed through enzymatic catalysis using a reaction substrate comprising protocatechuic acid (PCA) and a reaction enzyme comprising […] (PCD). PCD catalyzes the conversion of PCA and oxygen in the supporting medium in a 1:1 stoichiometry into β-carboxy-cis, cis-muconic acid (CMA). The use of PCA/PCD has a number of advantages relative to other enzymatic catalysis methods and other methods of deoxygenation. […] The use of PCA/PCD can achieve greater levels of hypoxia in the samples relative to some other methods. The use of PCA/PCD can also achieve specific levels of hypoxia as opposed to proceeding to complete hypoxia as in other methods thereby allowing simulation of more specific conditions (e.g., for a particular organ or particular level of hypoxia). Most importantly, the use of PCA/PCD allows accurate control of the rate of oxygen consumption in both the supporting medium and, as a result, the rate of deoxygenation of Hb in embodiments where the cellular unit comprises erythrocytes or extracellular Hb. Conventional methods of deoxygenation assume equilibrium or quasi-equilibrium conditions in which, for example, the rate of Hb deoxygenation occurs […] than the rate of oxygen consumption in the supporting medium. […]

[1] = FIG. 5, curve 76 vs curve 78, PCA/PCD deoxygenation at the same rate of oxygen consumption

## CC(C)n1nccc1-c1ncccc1COc1cccc(O)c1C=O [voxelotor]
FIG. 5, curve 76 (voxelotor) vs curve 78, same erythrocyte-containing sample deoxygenated by PCA/PCD at the same rate of oxygen consumption
  percentage of sickling of erythrocytes over time: reduction in sickling
[1]
  delay in sickling: longer delay in sickling
  erythrocyte sickling rate: slower erythrocyte sickling rate
